Results as given in patent EP4685153A1 (priority 2023, dated 2024).
Residues, ends and D or L forms follow the SMILES beside them. *: point of attachment. Succinyl(4-O-cholesteryl) = CC(C)CCC[C@@H](C)[C@H]1CC[C@H]2[C@@H]3CC=C4C[C@@H](OC(=O)CCC(=O)*)CC[C@]4(C)[C@H]3CC[C@]12C

Columns and labels:
[1] = Circular dichroism of lipopeptide alone; format: physicochemical; settings: CD, 10 µM in PBS pH 7.2
[2] = test system: HIV-1 strain SG3.1 living virus; settings: for IC50: strain SG3.1 living virus
[3] = test system: HIV-1 strain NL4-3 pseudovirus; settings: for IC50: strain NL4-3 pseudovirus
[4] = test system: HIV-1 strain JRFL pseudovirus; settings: for IC50: strain JRFL pseudovirus
[5] = molecular target: N44 (Human immunodeficiency virus type 1 group M subtype B, UniProt P04578); assay: Circular dichroism of lipopeptide complex with target sequence N44; settings: CD; for Tm value of the mixture with N44: [θ]222, 20-98 °C at 2 °C/min; for α-helix content of the mixture with N44: lipopeptide and N44 each 10 µM in PBS pH 7.2
Sequence of N44 (P04578 538-581): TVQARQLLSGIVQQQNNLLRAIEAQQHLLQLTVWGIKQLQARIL

[6] = test system: T20-resistant mutant strains (HIV-1 strain NL4-3); settings: T20-resistant mutant strains ( strain NL4-3, 48 h)
[7] = LP-124 versus LP-122, LP-125 versus LP-123

SMILES | α-helix content, lipopeptide alone [1] | IC50 [2] | IC50 [3] | IC50 [4] | Tm value of the mixture with N44 [5] | α-helix content of the mixture with N44 [5] | activity increased as compared to its template, SG3.1 living virus [2, 7] | activity increased as compared to its template, NL4-3 pseudovirus [3, 7] | activity increased as compared to its template, JRFL pseudovirus [4, 7] | IC50 [6]
CC[C@H](C)[C@H](NC(=O)[C@H](CCCCN)NC(=O)[C@H](CCCCN)NC(=O)[C@H](CCC(=O)O)NC(=O)[C@H](Cc1c[nH]c2ccccc12)NC(=O)[C@H](CCC(=O)O)NC(=O)[C@H](CCC(=O)O)NC(=O)[C@H](Cc1c[nH]c2ccccc12)NC(=O)[C@@H](NC(=O)[C@H](CCSC)NC(=O)[C@H](CCC(=O)O)NC(C)=O)[C@@H](C)O)C(=O)N[C@@H](CCC(=O)O)C(=O)N[C@@H](CCC(=O)O)C(=O)N[C@@H](CC(C)C)C(=O)N[C@@H](CCC(=O)O)C(=O)N[C@@H](CCCCN)C(=O)N[C@@H](CCCCN)C(=O)N[C@H](C(=O)N[C@@H](CCC(=O)O)C(=O)N[C@@H](CCC(=O)O)C(=O)N[C@@H](CC(C)C)C(=O)N[C@@H](CC(C)C)C(=O)N[C@@H](CCCCN)C(=O)N[C@@H](CCCCN)C(=O)N[C@@H](C)C(=O)N[C@@H](CCC(=O)O)C(=O)N[C@@H](CCC(=O)O)C(=O)N[C@@H](CCC(N)=O)C(=O)N[C@@H](CCC(N)=O)C(=O)N[C@@H](CCCCN)C(=O)N[C@@H](CCCCN)C(=O)N[C@@H](CC(N)=O)C(=O)N[C@@H](CCC(=O)O)C(=O)N[C@@H](C)C(=O)N[C@@H](C)C(=O)N[C@@H](C)C(=O)N[C@@H](CCCCN)C(=O)N[C@@H](CCCCNC(=O)CCC(=O)O[C@H]1CC[C@@]2(C)C(=CC[C@H]3[C@@H]4CC[C@H]([C@H](C)CCCC(C)C)[C@@]4(C)CC[C@@H]32)C1)C(N)=O)[C@@H](C)CC [LP-121] (Ac-EMTWEEWEKKIEELEKKIEELLKKAEEQQKKNEAAAKK(Succinyl(4-O-cholesteryl))-NH2) | 69% | 9.88 pM | 52 pM | 42.4 pM | > 98 °C | 81% |  |  |  | 
CC[C@H](C)[C@H](NC(=O)[C@H](CCCCN)NC(=O)[C@H](CCCCN)NC(=O)[C@H](CCC(=O)O)NC(=O)[C@H](Cc1ccc(O)cc1)NC(=O)[C@H](CCC(=O)O)NC(=O)[C@H](CCC(=O)O)NC(=O)[C@H](Cc1ccc(O)cc1)NC(=O)[C@@H](NC(C)=O)[C@@H](C)O)C(=O)N[C@@H](CCC(=O)O)C(=O)N[C@@H](CCC(=O)O)C(=O)N[C@@H](CC(C)C)C(=O)N[C@@H](CCC(=O)O)C(=O)N[C@@H](CCCCN)C(=O)N[C@@H](CCCCN)C(=O)N[C@H](C(=O)N[C@@H](CCC(=O)O)C(=O)N[C@@H](CCC(=O)O)C(=O)N[C@@H](CC(C)C)C(=O)N[C@@H](CC(C)C)C(=O)N[C@@H](CCCCN)C(=O)N[C@@H](CCCCN)C(=O)N[C@@H](C)C(=O)N[C@@H](CCC(=O)O)C(=O)N[C@@H](CCC(=O)O)C(=O)N[C@@H](CCC(N)=O)C(=O)N[C@@H](CCC(N)=O)C(=O)N[C@@H](CCCCN)C(=O)N[C@@H](CCCCN)C(=O)N[C@@H](CC(N)=O)C(=O)N[C@@H](CCC(=O)O)C(=O)N[C@@H](CCC(N)=O)C(=O)N[C@@H](CCC(=O)O)C(=O)N[C@@H](C)C(=O)N[C@@H](C)C(=O)N[C@@H](C)C(=O)N[C@@H](CCCCN)C(=O)N[C@@H](CCCCNC(=O)CCC(=O)O[C@H]1CC[C@@]2(C)C(=CC[C@H]3[C@@H]4CC[C@H]([C@H](C)CCCC(C)C)[C@@]4(C)CC[C@@H]32)C1)C(N)=O)[C@@H](C)CC [LP-124] (Ac-TYEEYEKKIEELEKKIEELLKKAEEQQKKNEQEAAAKK(Succinyl(4-O-cholesteryl))-NH2) | 64% | 1.06 pM | 2.07 pM | 5.93 pM | 86 °C | 79% | ~9 folds | about 11 folds | ~7 folds | 
CC[C@H](C)[C@H](NC(=O)[C@H](CCCCN)NC(=O)[C@H](CCCCN)NC(=O)[C@H](CCC(=O)O)NC(=O)[C@H](Cc1ccc(O)cc1)NC(=O)[C@H](CCC(=O)O)NC(=O)[C@H](CCC(=O)O)NC(=O)[C@H](Cc1ccc(O)cc1)NC(=O)[C@H](CCC(=O)O)NC(C)=O)C(=O)N[C@@H](CCC(=O)O)C(=O)N[C@@H](CCC(=O)O)C(=O)N[C@@H](CC(C)C)C(=O)N[C@@H](CCC(=O)O)C(=O)N[C@@H](CCCCN)C(=O)N[C@@H](CCCCN)C(=O)N[C@H](C(=O)N[C@@H](CCC(=O)O)C(=O)N[C@@H](CCC(=O)O)C(=O)N[C@@H](CC(C)C)C(=O)N[C@@H](CC(C)C)C(=O)N[C@@H](CCCCN)C(=O)N[C@@H](CCCCN)C(=O)N[C@@H](C)C(=O)N[C@@H](CCC(=O)O)C(=O)N[C@@H](CCC(=O)O)C(=O)N[C@@H](CCC(N)=O)C(=O)N[C@@H](CCC(N)=O)C(=O)N[C@@H](CCCCN)C(=O)N[C@@H](CCCCN)C(=O)N[C@@H](CC(N)=O)C(=O)N[C@@H](CCC(=O)O)C(=O)N[C@@H](C)C(=O)N[C@@H](C)C(=O)N[C@@H](C)C(=O)N[C@@H](CCCCN)C(=O)N[C@@H](CCCCNC(=O)CCC(=O)O[C@H]1CC[C@@]2(C)C(=CC[C@H]3[C@@H]4CC[C@H]([C@H](C)CCCC(C)C)[C@@]4(C)CC[C@@H]32)C1)C(N)=O)[C@@H](C)CC [LP-126] (Ac-EYEEYEKKIEELEKKIEELLKKAEEQQKKNEAAAKK(Succinyl(4-O-cholesteryl))-NH2) | 51% | 1.65 pM | 3.85 pM | 6.08 pM | 92 °C | 66% |  |  |  | 
CC[C@H](C)[C@H](NC(=O)[C@H](CCCCN)NC(=O)[C@H](CCC(N)=O)NC(=O)[C@H](CCC(=O)O)NC(=O)[C@H](Cc1ccc(O)cc1)NC(C)=O)C(=O)N[C@@H](CCC(=O)O)C(=O)N[C@@H](CCC(=O)O)C(=O)N[C@@H](CC(C)C)C(=O)N[C@@H](CC(C)C)C(=O)N[C@@H](CCCCN)C(=O)N[C@@H](CCCCN)C(=O)N[C@@H](C)C(=O)N[C@@H](CCC(=O)O)C(=O)N[C@@H](CCC(=O)O)C(=O)N[C@@H](CCC(N)=O)C(=O)N[C@@H](CCC(N)=O)C(=O)N[C@@H](CCCCN)C(=O)N[C@@H](CCCCN)C(=O)N[C@@H](CC(N)=O)C(=O)N[C@@H](CCC(=O)O)C(=O)N[C@@H](CCC(=O)O)C(=O)N[C@@H](CC(C)C)C(=O)N[C@@H](CCCCN)C(=O)N[C@@H](CCCCN)C(=O)N[C@@H](CC(C)C)C(=O)N[C@@H](CCC(=O)O)C(=O)N[C@@H](CCCCNC(=O)CCC(=O)O[C@H]1CC[C@@]2(C)C(=CC[C@H]3[C@@H]4CC[C@H]([C@H](C)CCCC(C)C)[C@@]4(C)CC[C@@H]32)C1)C(N)=O [LP-98, reference compound] (Ac-YEQKIEELLKKAEEQQKKNEELKKLEK(Succinyl(4-O-cholesteryl))-NH2) |  |  |  |  |  |  |  |  |  | 2660 pM
CC[C@H](C)[C@H](NC(=O)[C@H](CCCCN)NC(=O)[C@H](CCCCN)NC(=O)[C@H](CCC(=O)O)NC(=O)[C@H](Cc1c[nH]c2ccccc12)NC(=O)[C@H](CCC(=O)O)NC(=O)[C@H](CCC(=O)O)NC(=O)[C@H](Cc1c[nH]c2ccccc12)NC(=O)[C@@H](NC(C)=O)[C@@H](C)O)C(=O)N[C@@H](CCC(=O)O)C(=O)N[C@@H](CCC(=O)O)C(=O)N[C@@H](CC(C)C)C(=O)N[C@@H](CCC(=O)O)C(=O)N[C@@H](CCCCN)C(=O)N[C@@H](CCCCN)C(=O)N[C@H](C(=O)N[C@@H](CCC(=O)O)C(=O)N[C@@H](CCC(=O)O)C(=O)N[C@@H](CC(C)C)C(=O)N[C@@H](CC(C)C)C(=O)N[C@@H](CCCCN)C(=O)N[C@@H](CCCCN)C(=O)N[C@@H](C)C(=O)N[C@@H](CCC(=O)O)C(=O)N[C@@H](CCC(=O)O)C(=O)N[C@@H](CCC(N)=O)C(=O)N[C@@H](CCC(N)=O)C(=O)N[C@@H](CCCCN)C(=O)N[C@@H](CCCCN)C(=O)N[C@@H](CC(N)=O)C(=O)N[C@@H](CCC(=O)O)C(=O)N[C@@H](CCC(N)=O)C(=O)N[C@@H](CCC(=O)O)C(=O)N[C@@H](C)C(=O)N[C@@H](C)C(=O)N[C@@H](C)C(=O)N[C@@H](CCCCN)C(=O)N[C@@H](CCCCNC(=O)CCC(=O)O[C@H]1CC[C@@]2(C)C(=CC[C@H]3[C@@H]4CC[C@H]([C@H](C)CCCC(C)C)[C@@]4(C)CC[C@@H]32)C1)C(N)=O)[C@@H](C)CC [LP-122] (Ac-TWEEWEKKIEELEKKIEELLKKAEEQQKKNEQEAAAKK(Succinyl(4-O-cholesteryl))-NH2) | 65% | 9.05 pM | 22.5 pM | 41.5 pM | > 98 °C | 81% |  |  |  | 
